target: T1, Human complement C1s enzyme (Homo sapiens, UniProt P09871); test: Human C1s Enzyme Assay; type: biochemical; conditions: Table 2; C1s purified from human serum, 1.16 nM; substrate Z-L-Lys-SBzl; read-out: C1s Protease Activity
T1 construct: purified from human serum, Complement Technology, Inc; purchased Complement Technology, Inc; host or cells: human serum (plasma-derived natural protein)
T1 sequence (P09871 438-688 limits assumed): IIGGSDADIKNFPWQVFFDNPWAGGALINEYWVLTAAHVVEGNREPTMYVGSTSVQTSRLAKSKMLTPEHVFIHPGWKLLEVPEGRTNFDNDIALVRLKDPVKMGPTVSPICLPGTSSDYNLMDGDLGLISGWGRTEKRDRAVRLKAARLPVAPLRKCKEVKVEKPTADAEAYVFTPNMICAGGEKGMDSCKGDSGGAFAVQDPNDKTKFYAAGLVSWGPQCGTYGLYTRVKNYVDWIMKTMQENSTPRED
T1 sequence (P09871 16-437 partner limits assumed): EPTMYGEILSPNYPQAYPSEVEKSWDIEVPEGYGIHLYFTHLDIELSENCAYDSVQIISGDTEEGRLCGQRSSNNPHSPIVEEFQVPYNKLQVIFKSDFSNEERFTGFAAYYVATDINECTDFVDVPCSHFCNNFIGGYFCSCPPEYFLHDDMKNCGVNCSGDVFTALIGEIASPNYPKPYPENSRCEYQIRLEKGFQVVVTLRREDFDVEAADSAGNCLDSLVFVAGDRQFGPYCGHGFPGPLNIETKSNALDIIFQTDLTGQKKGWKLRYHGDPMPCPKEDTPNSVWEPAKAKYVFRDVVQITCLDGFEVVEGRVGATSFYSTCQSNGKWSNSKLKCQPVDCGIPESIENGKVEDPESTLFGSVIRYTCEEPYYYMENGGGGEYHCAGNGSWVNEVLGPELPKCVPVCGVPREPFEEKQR
Outline: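 Serum-purified human C1s (1.16 nM) preincubated 5 min at RT with compound in 50 mM Tris, 1 M NaCl, pH 7.5. Z-L-Lys-SBzl and DTNB (100 μM each) then added; A405 followed every 30 s for 30 min. IC50 from nonlinear regression of reaction rates versus compound concentration.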

SMILES	IC50 [nM]
CC(N)c1csc(CNC(=O)[C@@H]2CCCN2C(=O)CNC(=O)c2ccc(Oc3ccccc3)cc2)c1 (stereo partly drawn) [Compound 60, (2S)-N-((4-(1-aminoethyl)thiophen-2-yl)methyl)-1-((4-phenoxybenzoyl)glycyl)pyrrolidine-2-carboxamide]	> 1000
CO[C@@H]1C[C@H](C(=O)NCc2cc(C(=N)N)cs2)[C@H](C(=O)CNC(=O)c2ccc(Oc3ccccc3)cc2)C1 [Compound 61, N-(2-((1R,2S,4S)-2-(((4-carbamimidoylthiophen-2-yl)methyl)carbamoyl)-4-methoxycyclopentyl)-2-oxoethyl)-4-phenoxybenzamide]	> 1000
CO[C@@H]1C[C@H](C(=O)CNC(=O)c2ccc(Oc3ccccc3)cc2)[C@@H](C(=O)NCc2cc(C(=N)N)cs2)C1 [Compound 62, N-(2-((1S,2S,4R)-2-(((4-carbamimidoylthiophen-2-yl)methyl)carbamoyl)-4-methoxycyclopentyl)-2-oxoethyl)-4-phenoxybenzamide]	> 1000
N=C(N)NOCCNC(=O)[C@@H]1CC2(CN1C(=O)CNC(=O)c1ccc(Oc3ccccc3)cc1)OCCO2 [Compound 65, (S)-N-(2-(guanidinooxy)ethyl)-7-((4-phenoxybenzoyl)glycyl)-1,4-dioxa-7-azaspiro[4.4]nonane-8-carboxamide]	> 1000
CN(C)CCCC(=O)NCC(=O)N1CCC[C@H]1C(=O)NCc1cc(C(=N)N)cs1 [Compound 69, (S)-N-((4-carbamimidoylthiophen-2-yl)methyl)-1-((4-(dimethylamino)butanoyl)glycyl)pyrrolidine-2-carboxamide]	> 1000
CN(C)CCCCC(=O)NCC(=O)N1CCC[C@H]1C(=O)NCc1cc(C(=N)N)cs1 [Compound 70, (S)-N-((4-carbamimidoylthiophen-2-yl)methyl)-1-((5-(dimethylamino)pentanoyl)glycyl)pyrrolidine-2-carboxamide]	> 1000
CN(C)CCCCCC(=O)NCC(=O)N1CCC[C@H]1C(=O)NCc1cc(C(=N)N)cs1 [Compound 71, (S)-N-((4-carbamimidoylthiophen-2-yl)methyl)-1-((6-(dimethylamino)hexanoyl)glycyl)pyrrolidine-2-carboxamide]	> 1000
CCOc1ccc(C(=O)NCC(=O)N2CCC[C@H]2C(=O)NCc2cc(C(=N)N)cs2)cc1 [Compound 76, (S)-N-((4-carbamimidoylthiophen-2-yl)methyl)-1-((4-ethoxybenzoyl)glycyl)pyrrolidine-2-carboxamide]	100 to 1000
CCCCOc1ccc(C(=O)NCC(=O)N2CCC[C@H]2C(=O)NCc2cc(C(=N)N)cs2)cc1 [Compound 78, (S)-1-((4-butoxybenzoyl)glycyl)-N-((4-carbamimidoylthiophen-2-yl)methyl)pyrrolidine-2-carboxamide]	< 100
CCCCCC(=O)NCC(=O)N1CCC[C@H]1C(=O)NCc1cc(C(=N)N)cs1 [Compound 82, (S)-N-((4-carbamimidoylthiophen-2-yl)methyl)-1-(hexanoylglycyl)pyrrolidine-2-carboxamide]	100 to 1000
CCCCCCC(=O)NCC(=O)N1CCC[C@H]1C(=O)NCc1cc(C(=N)N)cs1 [Compound 83, (S)-N-((4-carbamimidoylthiophen-2-yl)methyl)-1-(heptanoylglycyl)pyrrolidine-2-carboxamide]	100 to 1000
C[C@H](OCc1ccccc1)[C@H](OCc1ccccc1)[C@@H](OCc1ccccc1)[C@H](CN(CC(=O)N1CC2(C[C@H]1C(=O)NCc1cc(C(=N)N)cs1)OCCO2)C(=O)OCc1ccccc1)OCc1ccccc1 [Compound 87, benzyl (2-((S)-8-(((4-carbamimidoylthiophen-2-yl)methyl)carbamoyl)-1,4-dioxa-7-azaspiro[4.4]nonan-7-yl)-2-oxoethyl)((2S,3S,4S,5S)-2,3,4,5-tetrakis(benzyloxy)hexyl)carbamate]	> 1000

Now from value to compound:

IC50 [nM]	SMILES
100 to 1000	N=C(N)c1csc(CNC(=O)[C@@H]2CCCN2C(=O)NNC(=O)c2ccc(Oc3ccccc3)cc2)c1 [Compound 59, (S)-N-((4-carbamimidoylthiophen-2-yl)methyl)-1-(2-(4-phenoxybenzoyl)hydrazine-1-carbonyl)pyrrolidine-2-carboxamide]
< 100	N#C/N=C(\N)c1csc(CNC(=O)[C@@H]2CC3(CN2C(=O)CNC(=O)c2ccc(Oc4ccccc4)cc2)OCCO3)c1 [Compound 63, (S,Z)-N-((4-(N′-cyanocarbamimidoyl)thiophen-2-yl)methyl)-7-((4-phenoxybenzoyl)glycyl)-1,4-dioxa-7-azaspiro[4.4]nonane-8-carboxamide]
100 to 1000	Cc1cc(C(=O)NCC(=O)N2CC3(C[C@H]2C(=O)NCc2cc4c(N)nccc4s2)OCCO3)ccc1Oc1ccccc1 [Compound 64, (S)-N-((4-aminothieno[3,2-c]pyridin-2-yl)methyl)-7-((3-methyl-4-phenoxybenzoyl)glycyl)-1,4-dioxa-7-azaspiro[4.4]nonane-8-carboxamide]
< 100	N/C(=N\O)c1csc(CNC(=O)[C@@H]2CC3(CN2C(=O)CNC(=O)c2ccc(Oc4ccccc4)cc2)OCCO3)c1 [Compound 66, (S,Z)-N-((4-(N′-hydroxycarbamimidoyl)thiophen-2-yl)methyl)-7-((4-phenoxybenzoyl)glycyl)-1,4-dioxa-7-azaspiro[4.4]nonane-8-carboxamide]
< 100	N=C(N)c1csc(CNC(=O)[C@@H]2CCCN2C(=O)CNC(=O)CCCOc2ccccc2)c1 [Compound 67, (S)-N-((4-carbamimidoylthiophen-2-yl)methyl)-1-((4-phenoxybutanoyl)glycyl)pyrrolidine-2-carboxamide]
< 100	N=C(N)c1csc(CNC(=O)[C@@H]2CCCN2C(=O)CNC(=O)CCCCOc2ccccc2)c1 [Compound 68, (S)-N-((4-carbamimidoylthiophen-2-yl)methyl)-1-((5-phenoxypentanoyl)glycyl)pyrrolidine-2-carboxamide]
< 100	CCCc1ccc(C(=O)NCC(=O)N2CCC[C@H]2C(=O)NCc2cc(C(=N)N)cs2)cc1 [Compound 72, (S)-N-((4-carbamimidoylthiophen-2-yl)methyl)-1-((4-propylbenzoyl)glycyl)pyrrolidine-2-carboxamide]
< 100	CCCCc1ccc(C(=O)NCC(=O)N2CCC[C@H]2C(=O)NCc2cc(C(=N)N)cs2)cc1 [Compound 73, (S)-1-((4-butylbenzoyl)glycyl)-N-((4-carbamimidoylthiophen-2-yl)methyl)pyrrolidine-2-carboxamide]
< 100	CCCCCc1ccc(C(=O)NCC(=O)N2CCC[C@H]2C(=O)NCc2cc(C(=N)N)cs2)cc1 [Compound 74, (S)-N-((4-carbamimidoylthiophen-2-yl)methyl)-1-((4-pentylbenzoyl)glycyl)pyrrolidine-2-carboxamide]
< 100	CCCCCCc1ccc(C(=O)NCC(=O)N2CCC[C@H]2C(=O)NCc2cc(C(=N)N)cs2)cc1 [Compound 75, (S)-N-((4-carbamimidoylthiophen-2-yl)methyl)-1-((4-hexylbenzoyl)glycyl)pyrrolidine-2-carboxamide]
< 100	CCCOc1ccc(C(=O)NCC(=O)N2CCC[C@H]2C(=O)NCc2cc(C(=N)N)cs2)cc1 [Compound 77, (S)-N-((4-carbamimidoylthiophen-2-yl)methyl)-1-((4-propoxybenzoyl)glycyl)pyrrolidine-2-carboxamide]
< 100	CCCCCOc1ccc(C(=O)NCC(=O)N2CCC[C@H]2C(=O)NCc2cc(C(=N)N)cs2)cc1 [Compound 79, (S)-N-((4-carbamimidoylthiophen-2-yl)methyl)-1-((4-(pentyloxy)benzoyl)glycyl)pyrrolidine-2-carboxamide]
< 100	N=C(N)c1csc(CNC(=O)[C@@H]2CCCN2C(=O)CNC(=O)CCCCc2ccccc2)c1 [Compound 80, (S)-N-((4-carbamimidoylthiophen-2-yl)methyl)-1-((5-phenylpentanoyl)glycyl)pyrrolidine-2-carboxamide]
< 100	N=C(N)c1csc(CNC(=O)[C@@H]2CCCN2C(=O)CNC(=O)CCCCCc2ccccc2)c1 [Compound 81, (S)-N-((4-carbamimidoylthiophen-2-yl)methyl)-1-((6-phenylhexanoyl)glycyl)pyrrolidine-2-carboxamide]
< 100	CCCCCCCC(=O)NCC(=O)N1CCC[C@H]1C(=O)NCc1cc(C(=N)N)cs1 [Compound 84, (S)-N-((4-carbamimidoylthiophen-2-yl)methyl)-1-(octanoylglycyl)pyrrolidine-2-carboxamide]
< 100	CCCCCCCCC(=O)NCC(=O)N1CCC[C@H]1C(=O)NCc1cc(C(=N)N)cs1 [Compound 85, (S)-N-((4-carbamimidoylthiophen-2-yl)methyl)-1-(nonanoylglycyl)pyrrolidine-2-carboxamide]
< 100	CCCCCCCCCC(=O)NCC(=O)N1CCC[C@H]1C(=O)NCc1cc(C(=N)N)cs1 [Compound 86, (S)-N-((4-carbamimidoylthiophen-2-yl)methyl)-1-(decanoylglycyl)pyrrolidine-2-carboxamide]

— patent publication US12479856B2, “Pharmaceutical compounds for the treatment of complement mediated disorders” (Achillion Pharmaceuticals, Inc., priority 2019, dated 2025)
